Data reported in ChEMBL document CHEMBL1201862, “PubChem BioAssay data set” (2004).
Active and inactive are the calls of the source. Rule as the data show it: actives have a measured IC50 and inactives only a lower limit.

Target: Envelope glycoprotein gp160 (Human immunodeficiency virus 1, UniProt Q6QLK5)
Assay: cell-free HIV fusion peptide-binding blockers – biochemical, uHTS, fluorescence dequenching, […] (AID 1986)

Sequence of Envelope glycoprotein gp160 (Q6QLK5 whole entry, the tested form may be a part): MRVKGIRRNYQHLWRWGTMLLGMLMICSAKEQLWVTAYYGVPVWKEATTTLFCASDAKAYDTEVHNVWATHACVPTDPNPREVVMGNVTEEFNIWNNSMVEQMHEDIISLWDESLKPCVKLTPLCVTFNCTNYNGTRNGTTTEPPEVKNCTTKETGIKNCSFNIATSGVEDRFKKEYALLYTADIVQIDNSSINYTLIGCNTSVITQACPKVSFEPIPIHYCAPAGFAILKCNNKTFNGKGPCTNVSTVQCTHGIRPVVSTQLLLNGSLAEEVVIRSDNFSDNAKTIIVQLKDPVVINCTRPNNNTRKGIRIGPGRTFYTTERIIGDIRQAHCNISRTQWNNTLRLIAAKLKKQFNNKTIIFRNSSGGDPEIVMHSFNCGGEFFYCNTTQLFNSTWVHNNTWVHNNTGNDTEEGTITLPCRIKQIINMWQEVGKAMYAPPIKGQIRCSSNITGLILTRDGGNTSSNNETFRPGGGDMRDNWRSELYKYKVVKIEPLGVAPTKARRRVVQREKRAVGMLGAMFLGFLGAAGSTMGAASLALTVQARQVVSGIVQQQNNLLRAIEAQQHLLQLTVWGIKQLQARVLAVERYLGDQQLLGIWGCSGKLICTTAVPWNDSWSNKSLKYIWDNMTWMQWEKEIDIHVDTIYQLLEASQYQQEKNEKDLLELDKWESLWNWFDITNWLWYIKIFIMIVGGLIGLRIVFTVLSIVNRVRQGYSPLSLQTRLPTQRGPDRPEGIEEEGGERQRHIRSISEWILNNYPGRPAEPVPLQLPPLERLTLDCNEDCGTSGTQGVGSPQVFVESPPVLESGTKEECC

**Q.** CSc1nc(SCC(=O)O)c2sc3nc(-c4ccccc4)c4c(c3c2n1)CCC4 was tested. Which IC50 did it give?
**A.** 16.2 µM (active)

**Q.** For O=C1NN(c2ccc(F)c(Cl)c2)C(=O)/C1=C\c1cccc(OC(=O)c2cccs2)c1, which IC50 is on record?
**A.** 7.72 µM (active)

**Q.** For O=C(O)Cn1cc(/C=c2/sc3nc4ccccc4n3c2=O)c2ccccc21, which IC50 is on record?
**A.** 68.9 µM (active)
